Results: article PMC8811960, “A Novel 2-Carbon-Linked Dimeric Artemisinin With Potent Antileukemic Activity and Favorable Pharmacology” (Frontiers in Oncology, 2022)
Where two headings read alike, the source gives them in different places.

Assays:
THP1 = experiment: alamarBlue growth inhibition, THP1; assay type: cell-based; conditions: Homo sapiens, THP-1, THP1, 48h, mean of 2 independent assays ± SD
Method: (§1) Cytotoxicity was assessed using alamarBlue assays (Life Technologies, Grand Island, NY) following manufacturer’s guidelines. Cell death was verified by Annexin V/7-aminoactinomycin D (7AAD) staining (BioLegend, San Diego, CA) per manufacturer’s guidelines.

KG1a = experiment: alamarBlue growth inhibition, KG1a; assay type: cell-based; conditions: Homo sapiens, KG-1a, 48h, mean of 2 independent assays ± SD
Method: as §1

MOLM14 = experiment: alamarBlue growth inhibition, MOLM14; assay type: cell-based; conditions: Homo sapiens
Method: as §1
In this experiment, provided to show the entire concentration:response range, MOLM14 AML cells were cultured with a range of concentrations of artesunate (AS), ART838, ART631, and ART576 for 48h. Graph indicates growth inhibition relative to vehicle (DMSO)-treated controls by alamarBlue absorbance assays. Data points and error bars represent mean and SD of 3 independent experiments done in triplicate.

HEL = experiment: alamarBlue growth inhibition, HEL; assay type: cell-based; conditions: Homo sapiens, 48h, mean of 2 independent assays ± SD
Method: as §1

[1] = Stability in mouse plasma (EDTA); assay type: in vitro ADME; conditions: 10 µM, 37°C, 1h
Method: (§2) The metabolic stability of ART631 was assessed in human and mouse plasma and liver microsomes (LM). For phase I microsomal stability assays, analogs (10 µM in <1% acetonitrile) were incubated in PBS containing liver microsomes, with or without cofactors ([22]). Microsomal controls (without cofactors) were used to determine non-enzymatic degradation. All experiments were incubated at 37°C for 1h and performed in duplicate. Reactions were stopped with acetonitrile and analyzed as described below.
(§3) ART631 was extracted from 25 µL plasma or microsomal solutions with 100 µL acetonitrile containing artemisinin (i.e. the natural product) as internal standard. […] Mobile phase A was ammonium acetate (2mM) containing 0.1% formic acid, and mobile phase B was acetonitrile containing 0.1% formic acid. The gradient started with mobile phase B and was held at 40% for 0.5 minutes with a flow rate of 0.4 mL/min, then increased to 100% over 1.5 minutes and held for 2.0 minutes, and finally returned back to 40% mobile phase B and allowed to equilibrate for 2.0 minutes. An AB Sciex 5500 triple quadrupole mass spectrometer operated in positive electrospray ionization mode was used for the detection of ART631. For stability studies, the ratio of ART631 to the internal standard, artemisinin, was assessed. […]

[2] = Phase I microsomal stability, mouse liver microsomes; assay type: in vitro ADME
Method: as §2
(§4) ART631 was extracted from 25 µL plasma or microsomal solutions with 100 µL acetonitrile containing artemisinin (i.e. the natural product) as internal standard. […] Mobile phase A was ammonium acetate (2mM) containing 0.1% formic acid, and mobile phase B was acetonitrile containing 0.1% formic acid. The gradient started with mobile phase B and was held at 40% for 0.5 minutes with a flow rate of 0.4 mL/min, then increased to 100% over 1.5 minutes and held for 2.0 minutes, and finally returned back to 40% mobile phase B and allowed to equilibrate for 2.0 minutes. An AB Sciex 5500 triple quadrupole mass spectrometer operated in positive electrospray ionization mode was used for the detection of ART631. For stability studies, the ratio of ART631 to the internal standard, artemisinin, was assessed. Calibration curves for ART631 were computed using the ratio of the peak area to that of the internal standard by using a quadratic equation with a 1/x^2 weighting function over the range of 8-1585 nM with dilutions of up to 1:10 (v/v).

10 human AML cell lines = experiment: alamarBlue growth inhibition, panel of 10 human AML cell lines; assay type: cell-based; conditions: for number of human AML cell lines whose growth was inhibited: of 10 human AML cell lines tested; for IC50: read-out: IC50 range
Method: as §1
Cell lines with adverse risk cytogenetic and molecular features, e.g. MLL rearrangements (ML2, MOLM14, MV4;11, THP1), FLT3-ITD (MOLM14, MV4;11), TP53 mutations (KG1a, ML2, THP1, U937), and NRAS/KRAS mutations (ML2, THP1), were among those exquisitely sensitive to ART631, with IC50s < 50 nM. The K562 cell line was the only exception, as it was resistant to all 3 of these ARTs. Based on this in vitro activity data combined with the drug stability data described below, ART631 was prioritized over ART576 for further in vitro and in vivo antileukemic efficacy experiments here ( Table 2 ).

[3] = Phase I microsomal stability, human liver microsomes; assay type: in vitro ADME
Method: as §2, §4

TF1 = experiment: alamarBlue growth inhibition, TF1; assay type: cell-based; conditions: Homo sapiens, TF-1, TF1, 48h, mean of 2 independent assays ± SD
Method: as §1

Stability in plasma = assay type: in vitro ADME, human and mouse; conditions: species not given
Method: as §2
We compared the in vitro stability of ART576 and ART631 ( Table 3 ). ART576 was stable in plasma (<10% degradation), but unstable with degradation of >70% in human liver microsomes with co-factors and >90% in mouse liver microsomes with co-factors ( Table 3 ).

U937 = experiment: alamarBlue growth inhibition, U937; assay type: cell-based; conditions: Homo sapiens, U-937, U937, 48h, mean of 2 independent assays ± SD
Method: as §1

ML2 = experiment: alamarBlue growth inhibition, ML2; assay type: cell-based; conditions: Homo sapiens, ML-2, ML2, 48h, mean of 2 independent assays ± SD
Method: as §1

MV4;11 = experiment: alamarBlue growth inhibition, MV4;11; assay type: cell-based; conditions: Homo sapiens, MV4;11, 48h, mean of 2 independent assays ± SD
Method: as §1

HL60 = experiment: alamarBlue growth inhibition, HL60; assay type: cell-based; conditions: Homo sapiens, HL-60, HL60, 48h, mean of 2 independent assays ± SD
Method: as §1

K562 = experiment: alamarBlue growth inhibition, K562; assay type: cell-based; conditions: Homo sapiens, K562, 48h, mean of 2 independent assays ± SD
Method: as §1

[4] = Stability in human plasma (EDTA); assay type: in vitro ADME; conditions: 10 µM, 37°C, 1h
Method: as §2, §3

DDIT3 = experiment: qRT-PCR for DDIT3 mRNA; assay type: cell-based, human; conditions: MOLM14, 18h, ART631 200 nM, ART838 200 nM, AS 10 uM, similar results in MV4;11 and ML2
Method: Cells were pre-treated with […] ROS detection reagent 5-(and 6-)-chloromethyl-2’,7’-dichlorodihydrofluorescein diacetate (CM-H2DCFDA, Life Technologies) for 30 min, followed by the iron chelator deferoxamine mesylate (DFO; 11 mM) for 60 min. Cells were then treated with ART631 (200 nM) or DMSO control for 18h, with subsequent analysis by flow cytometry. Western blotting and quantitative reverse transcription PCR (qRT-PCR) to assess for molecular markers of ROS-mediated apoptosis were performed as previously described ([20]).
Figure 4 ART631 elevated ROS and CHOP levels and reduced MCL1 expression in MOLM14 AML cells. (A) MOLM14 AML cells were pre-treated with ROS detection reagent CM-H2DCFDA ([…]) for 30 min, pre-treated with deferoxamine mesylate (DFO; 11 mM) for 60 min, and then treated with ART631 (200 nM) or DMSO control for 18h. They were then analyzed by flow cytometry. Graph represents %CM-H2DCFDA fluorescence compared to vehicle (DMSO) control treated cells. Error bars represent SD from 3 independent experiments. (B) MOLM14 AML cells were treated for 18h with vehicle, AS (10 uM), ART838 (200 nM), ART631 (200 nM), cytarabine (AraC; 150 nM), or SOR (5 uM). Protein was isolated and western blotted for MCL1, BCL2, CHOP, and β-actin. (C) MOLM14 cells were treated as in (B) for 18h, total RNA isolated, cDNA synthesized, and SYBR Green qRT-PCR performed in triplicates. Ct values were normalized to housekeeping gene GAPDH and fold change shown relative to vehicle (DMSO) control. Error bars represent SD from 3 independent experiments done in triplicate.

[5] = x5; cited from earlier work
23 leukemia cell lines = conditions: against 23 leukemia cell lines; cited from earlier work
AML45 PDX = tested on: AML45 PDX; set-up: method as in PMID 33560385; conditions: monotherapy; cited from earlier work
[6] = as previously reported; cited from earlier work
[7] = MOLM-14, MOLM14, 48h, alamarBlue, mean of 2 independent assays ± SD, read-out: IC50
[8] = 10 µM, 37°C, 1h, with cofactors
[9] = 10 µM, 37°C, 1h, without cofactors
[10] = NADPH-dependent phase I metabolism

| IC50 (THP1) [nM] | IC50 (MOLM14; [7]) [nM] | IC50 (U937) [nM] | IC50 (MV4;11) [nM] | IC50 (HL60) [nM] | IC50 (K562) [nM] | Compound | IC50 (KG1a) [nM] | IC50 (HEL) [nM] | number of human AML cell lines whose growth was inhibited (10 human AML cell lines) | IC50 (TF1) [nM] | IC50 (ML2) [nM] | DDIT3 mRNA (DDIT3) | further results |
| --- | --- | --- | --- | --- | --- | --- | --- | --- | --- | --- | --- | --- | --- |
| > 1000 | 43 ± 7 | 23 ± 1 | 38 ± 10 | 72 ± 18 | > 1000 | C[C@@H]1CCC2[C@@H](C)[C@@H](C(=O)C[C@H]3O[C@@H]4O[C@@]5(C)CCC6[C@H](C)CCC([C@H]3C)[C@]64OO5)O[C@@H]3O[C@@]4(C)CCC1[C@@]23OO4 (stereo partly shown) [ART576] | 64 ± 4 | 80 ± 19 | 8 | 49 ± 12 | 105 ± 12 |  | percentage remaining, Plasma (EDTA) Mouse [1]: 101%; percentage remaining, Phase I Metabolism MLM NADPH(+) [2, 8]: 7%; percentage remaining, Phase I Metabolism MLM NADPH(-) [2, 9]: 96%; degradation in mouse liver microsomes with co-factors [2, 10]: > 90%; IC50 (10 human AML cell lines; range over the inhibited cell lines of 10 human AML cell lines): 23 to 105 nM; percentage remaining, Phase I Metabolism HLM NADPH(+) [3, 8]: 26%; percentage remaining, Phase I Metabolism HLM NADPH(-) [3, 9]: 89%; degradation in human liver microsomes with co-factors [3, 10]: > 70%; degradation in plasma (Stability in plasma): < 10%; percentage remaining, Plasma (EDTA) Human [4]: 91% |
| > 10000 | 890 ± 99 | 521 ± 96 | 610 ± 30 | 1060 ± 83 | > 10000 | C[C@H]1[C@H](OC(=O)CCC(=O)O)O[C@@H]2O[C@@]3(C)CC[C@H]4[C@H](C)CC[C@@H]1[C@@]24OO3 [AS, artesunate, reference compound] | 2600 ± 458 | 1110 ± 93 |  | 1720 ± 302 | 1580 ± 94 | increased |  |

| Compound | IC50 (THP1) [nM] | IC50 (MOLM14; [7]) [nM] | IC50 (U937) [nM] | IC50 (MV4;11) [nM] | IC50 (HL60) [nM] | IC50 (K562) [nM] | IC50 (KG1a) [nM] | IC50 (HEL) [nM] | number of human AML cell lines whose growth was inhibited (10 human AML cell lines) | IC50 (TF1) [nM] | IC50 (ML2) [nM] | DDIT3 mRNA (DDIT3) | further results |
| --- | --- | --- | --- | --- | --- | --- | --- | --- | --- | --- | --- | --- | --- |
| C[C@@H]1CCC2[C@@H](C)[C@@H](CC(COP(=O)(Oc3ccccc3)Oc3ccccc3)C[C@H]3O[C@@H]4O[C@@]5(C)CCC6[C@H](C)CCC([C@H]3C)[C@]64OO5)O[C@@H]3O[C@@]4(C)CCC1[C@@]23OO4 (stereo partly shown) [ART838, reference compound] | 45 ± 3 |  | 22 ± 3 | 28 ± 1 | 45 ± 3 | > 1000 | 112 ± 7 | 72 ± 6 | 9 | 36 ± 3 | 40 ± 5 | increased | IC50 (MOLM14; MOLM-14, 48 h): 28 ± 3 nM; IC50 (10 human AML cell lines; Homo sapiens): 22 to 112 nM; multiple day MTD regimen [5]: 50 mg/kg/day; fold more potent than artesunate (AS) (23 leukemia cell lines): 88 fold; survival versus vehicle (AML45 PDX): did not reach statistical significance; degradation (stability) [6]: ≤ 20% |
